Laboratory results published in US11147272B2, “Pyridone compounds and agricultural and horticultural fungicides comprising the same as active ingredients” (MITSUI CHEMICALS AGRO, INC., priority 2017, dated 2021).

What was measured:
[1] = system: Plasmopara viticola; assay: Test Example G: Downy mildew on vine; conditions: Downy mildew on vine (Neomuscat); 250 ppm spray, 2.5 ml/pot; assessed 7 to 10 days after inoculation
[2] = system: Colletotrichum orbiculare; assay: Test Example H: Anthracnose on cucumber; conditions: Anthracnose on cucumber (Sagami Hanjiro); 250 ppm spray, 2.5 ml/pot; assessed 6 to 10 days after inoculation
[3] = system: Puccinia recondita; assay: Test Example E: Brown rust on wheat; format: in vivo; conditions: Brown rust on wheat; class of control value
[4] = system: Magnaporthe grisea; assay: whole plant or invertebrate; format: in vivo; conditions: Blast on rice; class of control value
[5] = system: Botrytis cinerea; assay: Test Example B: Gray mold on tomato; conditions: Gray mold on tomato; class of control value
[6] = system: Phytophthora infestans; assay: whole plant or invertebrate; format: in vivo; conditions: Late blight on tomato; class of control value
[7] = system: Blumeria graminis f. sp. hordei; assay: Test Example D: Powdery mildew on barley; conditions: Powdery mildew on barley; class of control value
Description: Seeds of a test plant (barley variety: Akashinriki) were planted and cultivated until the first leaves appeared. In the test, the inventive compounds were dissolved into dimethyl sulfoxide-methanol mixture solution (volume ratio: 9/1), and the resultant solutions were diluted with well water to a concentration of 250 ppm to obtain the drug solutions. The drug solutions were sprayed to the test plant (2.5 ml/pot). After the drug solutions dried, conidia of Blumeria graminis f. sp. hordei were inoculated to the plant by shaking off. The degrees of disease development were investigated 6 to 10 days after the inoculation, and the effectiveness of the drug solutions was evaluated.
In Test Examples described above, the degrees of disease development were evaluated in increments of 0.05 from 0 (as no incidence of disease) to 3 (as the degree of disease development in an untreated plant group). Further, control values were calculated using the following equation based on the degree of disease development.
n=Degree of disease development in each treated group

[8] = system: Alternaia brassicicola; assay: Test Example C: Alternaria sooty spot on cabbage; format: in vivo; conditions: Alternaria sooty spot on cabbage; class of control value
Description: Seeds of a test plant (cabbage variety: Shikidori) were planted and cultivated until the cotyledons extended.
<Control Value> Control value=100{1−(n/3)}

Row | SMILES | Test G control value class [1] | Test H control value class [2] | Test E control value class [3] | Test A control value class [4] | Test B control value class [5] | Test F control value class [6] | Test D control value class [7] | Test C control value class [8]
1 | CCn1c(-c2ccc(F)cc2F)c(CC(C)C)cc(Cl)c1=O [compound 119] | H (more than 50% control value) | H (more than 50% control value) | H (more than 50% control value) | H (more than 50% control value) | H (more than 50% control value) | L (50% or less control value) | H (more than 50% control value) | H (more than 50% control value)
2 | CCn1c(-c2ccc(F)cc2F)c(CC(C)C)cc(Br)c1=O [compound 120] | L (50% or less control value) | H (more than 50% control value) | H (more than 50% control value) | H (more than 50% control value) | H (more than 50% control value) | L (50% or less control value) | H (more than 50% control value) | H (more than 50% control value)
3 | CCn1c(-c2ccc(OCCOC)cc2F)c(CC(C)C)cc(Cl)c1=O [compound 121] | L (50% or less control value) | H (more than 50% control value) | H (more than 50% control value) | H (more than 50% control value) | H (more than 50% control value) | L (50% or less control value) | H (more than 50% control value) | H (more than 50% control value)
4 | CCn1c(-c2ccc(OCOC)cc2F)c(CC(C)C)cc(Cl)c1=O [compound 122] | H (more than 50% control value) | H (more than 50% control value) | H (more than 50% control value) | H (more than 50% control value) | H (more than 50% control value) | L (50% or less control value) | H (more than 50% control value) | H (more than 50% control value)
5 | CCOc1ccc(-c2c(CC(C)C)cc(Cl)c(=O)n2CC)c(F)c1 [compound 123] | H (more than 50% control value) | H (more than 50% control value) | H (more than 50% control value) | H (more than 50% control value) | H (more than 50% control value) | L (50% or less control value) | H (more than 50% control value) | H (more than 50% control value)
6 | C=CCOc1ccc(-c2c(CC(C)C)cc(Cl)c(=O)n2CC)c(F)c1 [compound 124] | L (50% or less control value) | H (more than 50% control value) | H (more than 50% control value) | H (more than 50% control value) | H (more than 50% control value) | L (50% or less control value) | H (more than 50% control value) | H (more than 50% control value)
7 | C#CCOc1ccc(-c2c(CC(C)C)cc(Cl)c(=O)n2CC)c(F)c1 [compound 125] | H (more than 50% control value) | H (more than 50% control value) | H (more than 50% control value) | H (more than 50% control value) | H (more than 50% control value) | L (50% or less control value) | H (more than 50% control value) | H (more than 50% control value)
8 | CCCOc1ccc(-c2c(CC(C)C)cc(Cl)c(=O)n2CC)c(F)c1 [compound 126] | H (more than 50% control value) | H (more than 50% control value) | H (more than 50% control value) | L (50% or less control value) | H (more than 50% control value) | L (50% or less control value) | H (more than 50% control value) | H (more than 50% control value)
9 | CCn1c(-c2ccc(OCC#N)cc2F)c(CC(C)C)cc(Cl)c1=O [compound 127] | H (more than 50% control value) | H (more than 50% control value) | H (more than 50% control value) | L (50% or less control value) | H (more than 50% control value) | L (50% or less control value) | H (more than 50% control value) | H (more than 50% control value)
10 | CCn1c(-c2ccc(OCSC)cc2F)c(CC(C)C)cc(Cl)c1=O [compound 128] | H (more than 50% control value) | H (more than 50% control value) | H (more than 50% control value) | H (more than 50% control value) | H (more than 50% control value) | L (50% or less control value) | H (more than 50% control value) | H (more than 50% control value)
11 | CCn1c(-c2ccc(OCC3CC3)cc2F)c(CC(C)C)cc(Cl)c1=O [compound 129] | H (more than 50% control value) | L (50% or less control value) | H (more than 50% control value) | L (50% or less control value) | H (more than 50% control value) | L (50% or less control value) | H (more than 50% control value) | H (more than 50% control value)
12 | CCn1c(-c2c(F)cc(OC)cc2F)c(CN(OC)C(C)=O)cc(Cl)c1=O [compound 130] | H (more than 50% control value) | H (more than 50% control value) | H (more than 50% control value) | H (more than 50% control value) | L (50% or less control value) | L (50% or less control value) | L (50% or less control value) | H (more than 50% control value)
13 | CCn1c(-c2c(F)cc(OC)cc2F)c(CN(OC)C(=O)OC)cc(Cl)c1=O [compound 131] | H (more than 50% control value) | H (more than 50% control value) | H (more than 50% control value) | H (more than 50% control value) | H (more than 50% control value) | L (50% or less control value) | H (more than 50% control value) | H (more than 50% control value)
14 | CCn1c(-c2c(F)cc(F)cc2F)c(CN(OC)C(C)=O)cc(Cl)c1=O [compound 132] | L (50% or less control value) | L (50% or less control value) | L (50% or less control value) | H (more than 50% control value) | L (50% or less control value) | L (50% or less control value) | L (50% or less control value) | H (more than 50% control value)
15 | CCn1c(-c2c(F)cc(F)cc2F)c(CN(OC)C(=O)OC)cc(Cl)c1=O [compound 133] | H (more than 50% control value) | H (more than 50% control value) | H (more than 50% control value) | H (more than 50% control value) | H (more than 50% control value) | L (50% or less control value) | H (more than 50% control value) | H (more than 50% control value)
16 | CC(C)Cc1ccc(=O)n(C)c1-c1ccc(Cl)cc1Cl [compound 134] | H (more than 50% control value) | L (50% or less control value) | H (more than 50% control value) | H (more than 50% control value) | H (more than 50% control value) | L (50% or less control value) | H (more than 50% control value) | L (50% or less control value)
